Experimental data taken from PubChem BioAssay AID2060891 (Molecular Pharmacology Branch, DTP, NCI, 2025).
Several values for one entry are separate records, joined by “and”; a condition that tells them apart may be missing. Equal values may be shown once.

Test system: K98450-129-R-PDC complex spheroid growth, percent test/control
Test: Anticancer human tumor K98450-129-R-PDC patient-derived colon adenocarcinoma cell line growth inhibition [RAS]
Settings: for IC50: curve of first compound; for viability, T/C: stronger effect = lower value
Excerpt: RAS pathway inhibitors in Combinations in Complex Spheroids
A high-throughput screen of multi-cell type tumor spheroids was designed to identify active combinations of RAS pathway inhibitors and targeted small molecules. Complex spheroids include a stromal component modeled by human endothelial cells (HUVEC) and fibroblasts modeled by human mesenchymal stem cells (MSCs). The concentration ranges selected for each drug and investigational agent were based upon clinically achievable concentrations if the clinical Cmax of the agent was known.
Compounds. The drugs and investigational agents: abemaciclib (NSC768073), cobimetinib (NSC768068), divarasib (GDC6063, NSC841802), docetaxel (NSC628503), GDC-1971 (RLY-1971, NSC841576), gemcitabine (NSC613327), inavolisib (NSC800729), ipatasertib (NSC767898), KB-0742 (NSC834161), MRTX-1133 (NSC836407), osimertinib (NSC779217), RMC-4630 (NSC839698), RMC-6236 (NSC851965), RMC-6291 (NSC852671), Ro-3306 (NSC812927), sapanisertib (NSC764658), SN-38 (NSC673596), staurosporine (NSC755774), SY5609 (NSC837396), and tovorafenib (DAY101, NSC766906), were obtained from the National Cancer Institute (NCI) Developmental Therapeutics Program Chemical Repository. The FDA-approved anticancer drug set is available from the NCI Developmental Therapeutics Program. […] The stock solutions were prepared in dimethyl sulfoxide (DMSO, Sigma-Aldrich, St. Louis, MO, cat. D2650) at 800-fold the tested concentration and stored at -70 degrees C prior to their use. All drugs and investigational agents were tested over a range starting from a high concentration at or near the clinical Cmax and decreasing in half-log increments. If the clinical Cmax for an agent had not been determined, the highest concentration tested was 10 microM.
Cell Culture. All cells were maintained in an incubator at 37 degrees C and 5% CO2 with 95% humidity. The PDC lines were cultured according to standard operating procedures established by the NCI PDMR. All PDCs were thawed and cultured in Matrigel-coated flasks prepared with a working solution of 1X Ham's F-12 nutrient mix, without supplementation (Invitrogen, Waltham, MA, cat. 11765054), 100 U/mL penicillin-streptomycin (Invitrogen, cat. 15140122), and 2.5% Matrigel (Corning Inc., Corning, NY, cat. 354248) for the first three passages. The 362531-283-R-J2-PDC and 782815-120-R-J1-PDC lines were cultured in 6C/Colon 1B media, which includes advanced DMEM/F-12 (Thermo Fisher Scientific, cat. 12634028), 10 mM HEPES (Thermo Fisher Scientific, cat. 15630080), 1X GlutaMAX supplement (Thermo Fisher Scientific, cat. 35050061), 0.1 mg/mL primocin (InvivoGen, San Diego, CA, cat. ant-pm-2), 10% defined fetal bovine serum, heat inactivated (HyClone Laboratories Inc., Logan, UT, cat. SH30070.03HI), 50% L-WRN conditioned media (ATCC, cat. CRL-3276), 1.25 mM N-Acetyl-L-cysteine (Sigma-Aldrich, cat. A9165), 10 mM nicotinamide (Sigma-Aldrich, cat. N0636), 1X B-27 supplement (Thermo Fisher Scientific, cat. 17504044), 1X N-2 supplement (Thermo Fisher Scientific, cat. 17502048), 50 ng/mL human EGF (Thermo Fisher Scientific, cat. PHG0311), and 10 microM Y-27632 dihydrochloride (Tocris Bioscience, cat. 1254). The K12877-001-R-J1-PDC line was cultured in 6I media, which includes all 6C/Colon 1B media plus 10 ng/mL human FGF-10 (PeproTech, cat. 100-26), 1 ng/mL human FGF-2 (PeproTech, cat. 100-18B), 1 µM prostaglandin E2 (Tocris Bioscience, cat. 2296), […] hydrocortisone (Sigma-Aldrich, cat. H4001), and […] bovine insulin (Sigma-Aldrich, cat. I6634). The K86415-001-R-J1-PDC line was cultured in 6D media, which includes all 6C/Colon 1B media components minus the L-WRN conditioned media. The 485176-168-R4-J1-PDC was cultured in PANC media, which includes all 6C/Colon 1B media plus 100 ng/mL human FGF-10 (PeproTech, cat. 100-26), 500 nM SB-431542 (Selleckchem, cat. S1067), and 10 nM gastrin (Tocris Bioscience, cat. 3006). […]

[1] = second compound 0.000949 µM, first compound 0.0316 µM
[2] = second compound 0.000949 µM, first compound 0.1 µM
[3] = second compound 0.000949 µM, first compound 0.316 µM
[4] = second compound 0.000949 µM, first compound 1 µM
[5] = second compound 0.000949 µM, first compound 3.16 µM
[6] = second compound 0.000949 µM, first compound 10 µM
[7] = second compound 0.003 µM, first compound 0.0316 µM
[8] = second compound 0.003 µM, first compound 0.1 µM
[9] = second compound 0.003 µM, first compound 0.316 µM
[10] = second compound 0.003 µM, first compound 1 µM
[11] = second compound 0.003 µM, first compound 3.16 µM
[12] = second compound 0.003 µM, first compound 10 µM
[13] = second compound 0.00949 µM, first compound 0.0316 µM
[14] = second compound 0.00949 µM, first compound 0.1 µM
[15] = second compound 0.00949 µM, first compound 0.316 µM
[16] = second compound 0.00949 µM, first compound 1 µM
[17] = second compound 0.00949 µM, first compound 3.16 µM
[18] = second compound 0.00949 µM, first compound 10 µM
[19] = second compound 0.03 µM, first compound 0.0316 µM
[20] = second compound 0.03 µM, first compound 0.1 µM
[21] = second compound 0.03 µM, first compound 0.316 µM
[22] = second compound 0.03 µM, first compound 1 µM
[23] = second compound 0.03 µM, first compound 3.16 µM
[24] = second compound 0.03 µM, first compound 10 µM
[25] = second compound 0.0949 µM, first compound 0.0316 µM
[26] = second compound 0.0949 µM, first compound 0.1 µM
[27] = second compound 0.0949 µM, first compound 0.316 µM
[28] = second compound 0.0949 µM, first compound 1 µM
[29] = second compound 0.0949 µM, first compound 3.16 µM
[30] = second compound 0.0949 µM, first compound 10 µM
[31] = second compound 0.3 µM, first compound 0.0316 µM
[32] = second compound 0.3 µM, first compound 0.1 µM
[33] = second compound 0.3 µM, first compound 0.316 µM
[34] = second compound 0.3 µM, first compound 1 µM
[35] = second compound 0.3 µM, first compound 3.16 µM
[36] = second compound 0.3 µM, first compound 10 µM
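Also: spheroids exposed to agents for seven days before the viability readout.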
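For viability, T/C in this document: luminescence used as a proxy for viable cell amount.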

SMILES: CCC(CC)c1cc(NC2CCC(N)C2)n2nccc2n1 (stereo not drawn) + CCn1c(-c2cccnc2C(C)OC)c2c3cc(ccc31)N1CCOC(CC(NC(=O)C(C(C)C)N(C)C(=O)C3(F)CCN(C(=O)C#CC(C)(C)N(C)C)CC3)C(=O)N3CCCC(N3)C(=O)OCC(C)(C)C2)C1
- IC50 (second compound 0.000949 µM): 2930 nM
- IC50 (second compound 0.003 µM): 545 nM
- IC50 (second compound 0.00949 µM): < 31.6 nM
- IC50 (second compound 0.03 µM): < 31.6 nM
- IC50 (second compound 0.0949 µM): < 31.6 nM
- IC50 (second compound 0.3 µM): < 31.6 nM
- viability, T/C [1]: 77.1%
- viability, T/C [2]: 72.7%
- viability, T/C [3]: 73%
- viability, T/C [4]: 59.7%
- viability, T/C [5]: 52.3%
- viability, T/C [6]: 11.8%
- viability, T/C [7]: 65.2%
- viability, T/C [8]: 59%
- viability, T/C [9]: 56.8%
- viability, T/C [10]: 39.4%
- viability, T/C [11]: 36.9%
- viability, T/C [12]: 10.6%
- viability, T/C [13]: 44.4%
- viability, T/C [14]: 53.3%
- viability, T/C [15]: 48.8%
- viability, T/C [16]: 35.4%
- viability, T/C [17]: 20.8%
- viability, T/C [18]: 11.9%
- viability, T/C [19]: 33.7%
- viability, T/C [20]: 42.4%
- viability, T/C [21]: 40.2%
- viability, T/C [22]: 23.1%
- viability, T/C [23]: 20.5%
- viability, T/C [24]: 10.4%
- viability, T/C [25]: 29.9%
- viability, T/C [26]: 33.4%
- viability, T/C [27]: 38.3%
- viability, T/C [28]: 36.3%
- viability, T/C [29]: 11.8%
- viability, T/C [30]: 9.38%
- viability, T/C [31]: 34.1%
- viability, T/C [32]: 36.5%
- viability, T/C [33]: 39.2%
- viability, T/C [34]: 31.3%
- viability, T/C [35]: 12.7%
- viability, T/C [36]: 9.36%

SMILES: Nc1ccn(C2OC(CO)C(O)C2(F)F)c(=O)n1 (stereo not drawn)
- viability, T/C (compound 0.00316 µM): 80.7% and 103% (2×) and 107%
- viability, T/C (compound 0.01 µM): 96.2% [middle of 4 runs]
- viability, T/C (compound 0.0316 µM): 78.8% [middle of 4 runs]
- viability, T/C (compound 1 µM): 49.4% [middle of 4 runs]

SMILES: CC(C)NCC(C(=O)N1CCN(c2ncnc3c2C(C)CC3O)CC1)c1ccc(Cl)cc1 (stereo not drawn) + CCn1c(-c2cccnc2C(C)OC)c2c3cc(ccc31)N1CCOC(CC(NC(=O)C(C(C)C)N(C)C(=O)C3(F)CCN(C(=O)C#CC(C)(C)N(C)C)CC3)C(=O)N3CCCC(N3)C(=O)OCC(C)(C)C2)C1
- IC50 (second compound 0.000949 µM): > 10000 nM
- IC50 (second compound 0.003 µM): > 10000 nM
- IC50 (second compound 0.00949 µM): < 31.6 nM
- IC50 (second compound 0.03 µM): < 31.6 nM
- IC50 (second compound 0.0949 µM): < 31.6 nM
- IC50 (second compound 0.3 µM): < 31.6 nM
- viability, T/C [1]: 64.3%
- viability, T/C [2]: 61.4%
- viability, T/C [3]: 83.3%
- viability, T/C [4]: 73.7%
- viability, T/C [5]: 73%
- viability, T/C [6]: 70.4%
- viability, T/C [7]: 68.8%
- viability, T/C [8]: 46.6%
- viability, T/C [9]: 61%
- viability, T/C [10]: 51.2%
- viability, T/C [11]: 64.1%
- viability, T/C [12]: 47%
- viability, T/C [13]: 45.4%
- viability, T/C [14]: 37.7%
- viability, T/C [15]: 42.9%
- viability, T/C [16]: 34.6%
- viability, T/C [17]: 50.8%
- viability, T/C [18]: 39.6%
- viability, T/C [19]: 33%
- viability, T/C [20]: 39%
- viability, T/C [21]: 36.8%
- viability, T/C [22]: 34%
- viability, T/C [23]: 38.1%
- viability, T/C [24]: 35%
- viability, T/C [25]: 32.4%
- viability, T/C [26]: 42.1%
- viability, T/C [27]: 34.7%
- viability, T/C [28]: 36.4%
- viability, T/C [29]: 36%
- viability, T/C [30]: 34.5%
- viability, T/C [31]: 31.6%
- viability, T/C [32]: 38.5%
- viability, T/C [33]: 34.4%
- viability, T/C [34]: 32.6%
- viability, T/C [35]: 33.7%
- viability, T/C [36]: 32.2%
